{"source": "PubChem BioAssay AID328", "about": "(DTP/NCI, 2004)", "test_system": "BDF1 mice, P388 leukemia ip, median survival T/C", "experiment": "NCI In Vivo Anticancer Drug Screen. Data for tumor model P388 Leukemia (intraperitoneal) in B6D2F1 (BDF1) mice", "conditions": "endpoint: median survival time, higher = longer survival", "procedure,_shortened": "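T/C = treated-group survival ÷ vehicle-control survival; tumour transplanted into mice before dosing.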", "note": "“And” between values parts separate entries of the source, which are not always exact repeats. Identical values can stand only once. Toxic doses and inconclusive results are not listed.", "data": [{"smiles": "CC[C@]1(O)C[C@H]2CN(CCc3c([nH]c4ccccc34)[C@@](C(=O)OC)(c3cc4c(cc3OC)N(C=O)[C@H]3[C@@](O)(C(=O)OC)[C@H](OC(C)=O)[C@]5(CC)C=CCN6CC[C@]43[C@@H]65)C2)C1", "values": [{"measurement": "T/C", "setting": "dose: 0.03 mg/kg/injection, schedule: Q01DX009 (ip), vehicle: water", "result": "86 % of control"}, {"measurement": "T/C", "setting": "dose: 0.03 mg/kg/injection, schedule: Q01DX010 (ip), vehicle: saline", "result": "163 % of control and 172 % of control (2×)"}, {"measurement": "T/C", "setting": "dose: 0.06 mg/kg/injection, schedule: Q04DX003 (ip), vehicle: water", "result": "90 % of control"}, {"measurement": "T/C", "setting": "dose: 0.08 mg/kg/injection, schedule: Q01DX009 (ip), vehicle: saline", "result": "172 % of control"}, {"measurement": "T/C", "setting": "dose: 0.12 mg/kg/injection, schedule: Q01DX009 (ip), vehicle: saline", "result": "300 % of control"}, {"measurement": "T/C", "setting": "dose: 0.13 mg/kg/injection, schedule: Q01DX010 (ip), vehicle: saline", "result": "168 % of control"}, {"measurement": "T/C", "setting": "dose: 0.2 mg/kg/injection, schedule: Q01DX009 (ip), vehicle: saline", "result": "231 % of control and 277 % of control"}, {"measurement": "T/C", "setting": "dose: 0.2 mg/kg/injection, schedule: Q04DX002 (ip), vehicle: saline", "result": "163 % of control"}, {"measurement": "T/C", "setting": "dose: 0.22 mg/kg/injection, schedule: Q01DX009 (ip), vehicle: clinical formulation", "result": "245 % of control"}, {"measurement": "T/C", "setting": "dose: 0.25 mg/kg/injection, schedule: Q01DX009 (ip), vehicle: saline", "result": "275 % of control"}, {"measurement": "T/C", "setting": "dose: 0.25 mg/kg/injection, schedule: Q01DX010 (ip), vehicle: saline", "result": "240 % of control and 254 % of control and 163 % of control"}, {"measurement": "T/C", "setting": "dose: 0.3 mg/kg/injection, schedule: Q01DX009 (ip), vehicle: saline", "result": "289 % of control and 500 % of control"}, {"measurement": "T/C", "setting": "dose: 0.3 mg/kg/injection, schedule: Q04DX003 (ip), vehicle: saline", "result": "186 % of control"}, {"measurement": "T/C", "setting": "dose: 0.45 mg/kg/injection, schedule: Q01DX009 (ip), vehicle: saline", "result": "278 % of control and 336 % of control"}, {"measurement": "T/C", "setting": "dose: 0.48 mg/kg/injection, schedule: Q04DX003 (ip), vehicle: saline", "result": "232 % of control and 150 % of control"}, {"measurement": "T/C", "setting": "dose: 0.5 mg/kg/injection, schedule: Q01DX009 (ip), vehicle: saline", "result": "90 % of control"}, {"measurement": "T/C", "setting": "dose: 0.5 mg/kg/injection, schedule: Q01DX010 (ip), vehicle: saline", "result": "86 % of control and 90 % of control"}, {"measurement": "T/C", "setting": "dose: 0.5 mg/kg/injection, schedule: Q04DX003 (ip), vehicle: water", "result": "177 % of control"}, {"measurement": "T/C", "setting": "dose: 0.53 mg/kg/injection, schedule: Q04DX003 (ip), vehicle: saline", "result": "183 % of control"}, {"measurement": "T/C", "setting": "dose: 0.8 mg/kg/injection, schedule: Q04DX003 (ip), vehicle: clinical formulation", "result": "236 % of control"}, {"measurement": "T/C", "setting": "dose: 1.0 mg/kg/injection, schedule: Q01DX001 (ip), vehicle: water", "result": "153 % of control"}, {"measurement": "T/C", "setting": "dose: 1.0 mg/kg/injection, schedule: Q04DX003 (ip), vehicle: water", "result": "227 % of control"}, {"measurement": "T/C", "setting": "dose: 1.0 mg/kg/injection, schedule: Q04DX004 (ip), vehicle: saline", "result": "233 % of control"}, {"measurement": "T/C", "setting": "dose: 1.1 mg/kg/injection, schedule: Q04DX003 (ip), vehicle: saline", "result": "532 % of control and 180 % of control"}, {"measurement": "T/C", "setting": "dose: 1.2 mg/kg/injection, schedule: Q04DX003 (ip), vehicle: clinical formulation", "result": "240 % of control"}, {"measurement": "T/C", "setting": "dose: 1.3 mg/kg/injection, schedule: Q04DX003 (ip), vehicle: saline", "result": "250 % of control"}, {"measurement": "T/C", "setting": "dose: 1.5 mg/kg/injection, schedule: Q04DX004 (ip), vehicle: saline", "result": "252 % of control"}, {"measurement": "T/C", "setting": "dose: 1.56 mg/kg/injection, schedule: Q04DX002 (ip), vehicle: saline", "result": "90 % of control"}, {"measurement": "T/C", "setting": "dose: 1.65 mg/kg/injection, schedule: Q04DX003 (ip), vehicle: saline", "result": "532 % of control"}, {"measurement": "T/C", "setting": "dose: 1.8 mg/kg/injection, schedule: Q04DX003 (ip), vehicle: clinical formulation", "result": "113 % of control"}, {"measurement": "T/C", "setting": "dose: 2.0 mg/kg/injection, schedule: Q01DX001 (ip), vehicle: water", "result": "168 % of control"}, {"measurement": "T/C", "setting": "dose: 2.0 mg/kg/injection, schedule: Q04DX003 (ip), vehicle: saline", "result": "116 % of control"}, {"measurement": "T/C", "setting": "dose: 2.47 mg/kg/injection, schedule: Q04DX003 (ip), vehicle: saline", "result": "166 % of control"}, {"measurement": "T/C", "setting": "dose: 4.0 mg/kg/injection, schedule: Q01DX001 (ip), vehicle: saline", "result": "235 % of control and 163 % of control"}, {"measurement": "T/C", "setting": "dose: 4.0 mg/kg/injection, schedule: Q04DX003 (ip), vehicle: water", "result": "111 % of control"}, {"measurement": "T/C", "setting": "dose: 15.6 micrograms/kg/injection, schedule: Q03HX008 (ip), vehicle: clinical formulation", "result": "157 % of control"}, {"measurement": "T/C", "setting": "dose: 15.6 micrograms/kg/injection, schedule: Q03HX016 (ip), vehicle: clinical formulation", "result": "185 % of control"}, {"measurement": "T/C", "setting": "dose: 31.2 micrograms/kg/injection, schedule: Q03HX008 (ip), vehicle: clinical formulation", "result": "185 % of control"}, {"measurement": "T/C", "setting": "dose: 31.2 micrograms/kg/injection, schedule: Q03HX024 (ip), vehicle: clinical formulation", "result": "233 % of control"}, {"measurement": "T/C", "setting": "dose: 62.0 micrograms/kg/injection, schedule: Q03HX024 (ip), vehicle: saline", "result": "255 % of control"}, {"measurement": "T/C", "setting": "dose: 62.5 micrograms/kg/injection, schedule: Q03HX016 (ip), vehicle: clinical formulation", "result": "257 % of control"}, {"measurement": "T/C", "setting": "dose: 62.5 micrograms/kg/injection, schedule: Q04DX003 (ip), vehicle: clinical formulation", "result": "166 % of control"}, {"measurement": "T/C", "setting": "dose: 125.0 micrograms/kg/injection, schedule: Q03HX016 (ip), vehicle: clinical formulation", "result": "314 % of control"}, {"measurement": "T/C", "setting": "dose: 125.0 micrograms/kg/injection, schedule: Q03HX024 (ip), vehicle: saline", "result": "370 % of control"}, {"measurement": "T/C", "setting": "dose: 125.0 micrograms/kg/injection, schedule: Q04DX003 (ip), vehicle: clinical formulation", "result": "180 % of control"}, {"measurement": "T/C", "setting": "dose: 125.0 micrograms/kg/injection, schedule: Q08DX002 (ip), vehicle: clinical formulation", "result": "171 % of control"}, {"measurement": "T/C", "setting": "dose: 250.0 micrograms/kg/injection, schedule: Q01DX001 (ip), vehicle: clinical formulation", "result": "161 % of control"}, {"measurement": "T/C", "setting": "dose: 250.0 micrograms/kg/injection, schedule: Q01DX009 (ip), vehicle: clinical formulation", "result": "242 % of control"}, {"measurement": "T/C", "setting": "dose: 250.0 micrograms/kg/injection, schedule: Q03HX008 (ip), vehicle: clinical formulation", "result": "247 % of control"}, {"measurement": "T/C", "setting": "dose: 250.0 micrograms/kg/injection, schedule: Q03HX024 (ip), vehicle: saline", "result": "90 % of control"}, {"measurement": "T/C", "setting": "dose: 250.0 micrograms/kg/injection, schedule: Q08DX002 (ip), vehicle: clinical formulation", "result": "176 % of control"}, {"measurement": "T/C", "setting": "dose: 360.0 micrograms/kg/injection, schedule: Q04DX003 (ip), vehicle: saline", "result": "182 % of control"}, {"measurement": "T/C", "setting": "dose: 432.0 micrograms/kg/injection, schedule: Q04DX003 (ip), vehicle: saline", "result": "249 % of control"}, {"measurement": "T/C", "setting": "dose: 500.0 micrograms/kg/injection, schedule: Q01DX001 (ip), vehicle: clinical formulation", "result": "152 % of control"}, {"measurement": "T/C", "setting": "dose: 500.0 micrograms/kg/injection, schedule: Q03HX016 (ip), vehicle: clinical formulation", "result": "123 % of control"}, {"measurement": "T/C", "setting": "dose: 500.0 micrograms/kg/injection, schedule: Q04DX003 (ip), vehicle: clinical formulation", "result": "228 % of control"}, {"measurement": "T/C", "setting": "dose: 500.0 micrograms/kg/injection, schedule: Q04DX003 (ip), vehicle: saline", "result": "248 % of control"}, {"measurement": "T/C", "setting": "dose: 500.0 micrograms/kg/injection, schedule: Q08DX002 (ip), vehicle: clinical formulation", "result": "180 % of control"}, {"measurement": "T/C", "setting": "dose: 540.0 micrograms/kg/injection, schedule: Q04DX003 (ip), vehicle: saline", "result": "240 % of control and 272 % of control"}, {"measurement": "T/C", "setting": "dose: 600.0 micrograms/kg/injection, schedule: Q01DX009 (ip), vehicle: saline", "result": "120 % of control"}, {"measurement": "T/C", "setting": "dose: 600.0 micrograms/kg/injection, schedule: Q04DX003 (ip), vehicle: saline", "result": "250 % of control and 182 % of control"}, {"measurement": "T/C", "setting": "dose: 648.0 micrograms/kg/injection, schedule: Q04DX003 (ip), vehicle: saline", "result": "254 % of control"}, {"measurement": "T/C", "setting": "dose: 720.0 micrograms/kg/injection, schedule: Q04DX003 (ip), vehicle: saline", "result": "225 % of control and 291 % of control"}, {"measurement": "T/C", "setting": "dose: 900.0 micrograms/kg/injection, schedule: Q04DX003 (ip), vehicle: saline", "result": "280 % of control and 322 % of control"}, {"measurement": "T/C", "setting": "dose: 1000.0 micrograms/kg/injection, schedule: Q04DX003 (ip), vehicle: clinical formulation", "result": "571 % of control"}, {"measurement": "T/C", "setting": "dose: 1000.0 micrograms/kg/injection, schedule: Q08DX002 (ip), vehicle: clinical formulation", "result": "228 % of control"}, {"measurement": "T/C", "setting": "dose: 1080.0 micrograms/kg/injection, schedule: Q04DX003 (ip), vehicle: saline", "result": "292 % of control"}, {"measurement": "T/C", "setting": "dose: 1200.0 micrograms/kg/injection, schedule: Q04DX003 (ip), vehicle: saline", "result": "225 % of control and 116 % of control"}, {"measurement": "T/C", "setting": "dose: 1500.0 micrograms/kg/injection, schedule: Q04DX003 (ip), vehicle: saline", "result": "278 % of control and 320 % of control"}, {"measurement": "T/C", "setting": "dose: 1800.0 micrograms/kg/injection, schedule: Q04DX003 (ip), vehicle: saline", "result": "294 % of control"}, {"measurement": "T/C", "setting": "dose: 2000.0 micrograms/kg/injection, schedule: Q04DX003 (ip), vehicle: clinical formulation", "result": "95 % of control"}, {"measurement": "T/C", "setting": "dose: 2000.0 micrograms/kg/injection, schedule: Q08DX002 (ip), vehicle: clinical formulation", "result": "300 % of control"}, {"measurement": "T/C", "setting": "dose: 4000.0 micrograms/kg/injection, schedule: Q01DX001 (ip), vehicle: clinical formulation", "result": "233 % of control"}, {"measurement": "T/C", "setting": "dose: 4000.0 micrograms/kg/injection, schedule: Q08DX002 (ip), vehicle: clinical formulation", "result": "238 % of control"}]}]}
